The source of these data is patent US8187278B2, “Photodynamic cellular and acellular organism eradication utilizing a photosensitive material and benzalkonium chloride” (Advanced Photodynamic Technologies, Inc., priority 1998, dated 2012).

For data set [1], the system named is several species of bacteria. The data set can be described thus: photoeradication using methylene blue mediated PDT and the surfactant benzalkonium chloride (FIG. 2), qualitative colony count. The class given is cell-based. As to conditions: diode laser about 664 nm, 100 mw/cm^2, 30 to 40 J/cm^2; methylene blue 0 to 100 μg/ml, benzalkonium chloride 0 to 0.01%; topically applied. The source says:
One particular treatment protocol according to the present invention utilizes the photosensitive material methylene blue and surfactant benzalkonium chloride. Benzalkonium chloride concentrations from 0.001% to 0.5% have been identified as advantageous in the destruction of certain microorganisms, such as Candida albicans, Escherechia coli, Pseudomonas aeruginosa, Staphylococcus aureus, Klebsellia, Serratia,Haemophilus influenza, and Streptococcus pneumoniae. Reference may be made to FIG. 2, which illustrates a schedule of investigation results. […] The laser used for illumination was a diode laser. Methylene blue concentrations ranged from 0 to 100 μg/ml. Benzalkonium chloride concentrations ranged from 0 to 0.01%. The combined solution was topically applied at the cell site. A light dosage rate was 100 mw/cm^2. Light dosages ranged from 30 to 40 J/cm^2. A qualitative colony count relates particular colony counts to an associated score.

The conditions of data set [2]: cited from earlier work.
For data set [3] the following is noted: cited from earlier work. This is another data set of the same source.

Like-named read-outs stand apart in the source and are kept apart here.

As for `CN(C)c1ccc2nc3ccc(=[N+](C)C)cc-3sc2c1` [methylene blue], the “sensitization of bacteria to killing by laser irradiation” value in data set [1] is given as “alone neither the surfactant nor the photosensitizing agent sensitized the bacteria to killing by laser irradiation”. The “yield of the singlet oxygen generation” value in data set [2] (pH 5) is 0.2; in data set [2] (pH 9), 0.94. Also, in data set [3] (humans, orally and intravenously, high doses), the “toxic effects on administration in high doses” value is given as “without any toxic effects”. Also, the tissue toxicity result in data set [3] (in vivo) is on record as “very low tissue toxicity”.

Regarding “alkyl dimethyl benzylammonium chloride [benzalkonium chloride]”, the “sensitization of bacteria to killing by laser irradiation” value in data set [1] is “alone neither the surfactant nor the photosensitizing agent sensitized the bacteria to killing by laser irradiation”.
